Measurements from US5741781A, “Mercaptoalkanoyldipeptide compounds” (Adir et Compagnie, priority 1995, dated 1998).

Columns and labels:
[1] = cited from earlier work
[2] = biological target: neutral endopeptidase (NEP) (Homo sapiens, UniProt P08473); experiment: Inhibitory effect in vitro on neutral endopeptidase, [3H]-D-Ala2-Leu-encephalin as substrate; assay type: biochemical; conditions: comment on Table I
[3] = biological target: neutral endopeptidase called "encephalinase" (Homo sapiens, UniProt P08473); conditions: Nature, 228, (1980), 286-288; cited from earlier work
neutral endopeptidase called "encephalinase", sequence (P08473 whole entry): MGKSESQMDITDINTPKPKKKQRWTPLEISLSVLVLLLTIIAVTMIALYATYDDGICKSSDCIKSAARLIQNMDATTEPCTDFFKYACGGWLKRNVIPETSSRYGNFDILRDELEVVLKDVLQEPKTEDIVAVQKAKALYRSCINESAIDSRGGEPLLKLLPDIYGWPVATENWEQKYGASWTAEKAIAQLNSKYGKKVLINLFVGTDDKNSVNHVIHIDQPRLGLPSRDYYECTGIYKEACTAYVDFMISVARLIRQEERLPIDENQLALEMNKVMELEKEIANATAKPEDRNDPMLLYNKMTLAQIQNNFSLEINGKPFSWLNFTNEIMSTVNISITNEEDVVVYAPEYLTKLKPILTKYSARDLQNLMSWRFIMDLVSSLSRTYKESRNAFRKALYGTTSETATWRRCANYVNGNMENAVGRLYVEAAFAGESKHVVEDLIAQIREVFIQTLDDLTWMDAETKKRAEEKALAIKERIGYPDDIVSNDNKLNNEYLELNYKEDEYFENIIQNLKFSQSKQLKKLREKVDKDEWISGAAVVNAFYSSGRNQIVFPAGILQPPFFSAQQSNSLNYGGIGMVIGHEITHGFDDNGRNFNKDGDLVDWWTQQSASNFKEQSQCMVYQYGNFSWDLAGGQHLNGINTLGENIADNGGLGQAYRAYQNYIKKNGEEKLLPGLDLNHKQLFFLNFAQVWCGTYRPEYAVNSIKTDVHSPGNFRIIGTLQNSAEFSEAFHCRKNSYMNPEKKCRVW

[4] = biological target: T1, renal neutral endopeptidase (NEP) (Mus musculus, UniProt Q61391); experiment: Inhibition in vivo of renal NEP, competition with [3H]HACBOGIy; conditions: mice, p.o. single dose 2.6 × 10^-6 mol/kg (1.5 mg/kg)
T1 construct: from tissue; host or cells: mouse kidney (in vivo, homogenised after sacrifice)
T1 sequence (Q61391 1-750): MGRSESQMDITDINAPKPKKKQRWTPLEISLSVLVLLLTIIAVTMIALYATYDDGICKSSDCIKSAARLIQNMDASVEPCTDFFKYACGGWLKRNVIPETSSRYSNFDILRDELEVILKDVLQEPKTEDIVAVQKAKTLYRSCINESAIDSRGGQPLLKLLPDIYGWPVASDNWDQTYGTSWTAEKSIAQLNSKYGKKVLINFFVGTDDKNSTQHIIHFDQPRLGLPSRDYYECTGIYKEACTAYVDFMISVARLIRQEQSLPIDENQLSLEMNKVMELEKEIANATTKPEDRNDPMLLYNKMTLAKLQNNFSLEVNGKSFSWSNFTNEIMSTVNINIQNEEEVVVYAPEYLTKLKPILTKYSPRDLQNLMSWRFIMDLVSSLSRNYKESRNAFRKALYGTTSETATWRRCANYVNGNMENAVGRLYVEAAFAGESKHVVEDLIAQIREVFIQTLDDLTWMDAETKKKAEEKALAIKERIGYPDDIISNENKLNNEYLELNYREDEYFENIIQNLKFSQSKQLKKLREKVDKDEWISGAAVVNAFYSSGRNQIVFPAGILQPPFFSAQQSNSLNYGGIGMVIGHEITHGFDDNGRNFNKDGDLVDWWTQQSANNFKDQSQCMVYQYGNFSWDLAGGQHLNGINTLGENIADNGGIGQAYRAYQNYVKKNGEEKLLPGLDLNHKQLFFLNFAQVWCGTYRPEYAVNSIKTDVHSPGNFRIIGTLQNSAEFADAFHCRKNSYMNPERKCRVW
Experimental: (§1) The compounds are administrated per os to mice in a single dose. Inhibition of both enzymes is measured during a time period from 1 hour to 16 hours by competitive experiments with specific radiolabelled markers for each enzyme. After i.v. administration of a radiolabelled ACE inhibitor ([^3 H]trandolaprilate) or a radiolabelled NEP inhibitor ([^3 H]HACBOGIy), the animal is sacrificed and the lungs or the kidneys are removed. The organs are homogenized and the radioactivity associated to these homogenates is measured by liquid scintillation as described in the protocol by M. C. Fourni6-Zaluski et al. (J. Med. Chem., 37, (1994), 1070-1083).

[5] = biological target: T2, pulmonary peptidyldipeptidase A (ACE) (Mus musculus, UniProt P09470); experiment: Inhibition in vivo of pulmonary ACE, competition with [3H]trandolaprilate; conditions: mice, p.o. single dose 2.6 × 10^-6 mol/kg (1.5 mg/kg)
T2 construct: from tissue; host or cells: mouse lung (in vivo, homogenised after sacrifice)
T2 sequence (P09470 35-1312): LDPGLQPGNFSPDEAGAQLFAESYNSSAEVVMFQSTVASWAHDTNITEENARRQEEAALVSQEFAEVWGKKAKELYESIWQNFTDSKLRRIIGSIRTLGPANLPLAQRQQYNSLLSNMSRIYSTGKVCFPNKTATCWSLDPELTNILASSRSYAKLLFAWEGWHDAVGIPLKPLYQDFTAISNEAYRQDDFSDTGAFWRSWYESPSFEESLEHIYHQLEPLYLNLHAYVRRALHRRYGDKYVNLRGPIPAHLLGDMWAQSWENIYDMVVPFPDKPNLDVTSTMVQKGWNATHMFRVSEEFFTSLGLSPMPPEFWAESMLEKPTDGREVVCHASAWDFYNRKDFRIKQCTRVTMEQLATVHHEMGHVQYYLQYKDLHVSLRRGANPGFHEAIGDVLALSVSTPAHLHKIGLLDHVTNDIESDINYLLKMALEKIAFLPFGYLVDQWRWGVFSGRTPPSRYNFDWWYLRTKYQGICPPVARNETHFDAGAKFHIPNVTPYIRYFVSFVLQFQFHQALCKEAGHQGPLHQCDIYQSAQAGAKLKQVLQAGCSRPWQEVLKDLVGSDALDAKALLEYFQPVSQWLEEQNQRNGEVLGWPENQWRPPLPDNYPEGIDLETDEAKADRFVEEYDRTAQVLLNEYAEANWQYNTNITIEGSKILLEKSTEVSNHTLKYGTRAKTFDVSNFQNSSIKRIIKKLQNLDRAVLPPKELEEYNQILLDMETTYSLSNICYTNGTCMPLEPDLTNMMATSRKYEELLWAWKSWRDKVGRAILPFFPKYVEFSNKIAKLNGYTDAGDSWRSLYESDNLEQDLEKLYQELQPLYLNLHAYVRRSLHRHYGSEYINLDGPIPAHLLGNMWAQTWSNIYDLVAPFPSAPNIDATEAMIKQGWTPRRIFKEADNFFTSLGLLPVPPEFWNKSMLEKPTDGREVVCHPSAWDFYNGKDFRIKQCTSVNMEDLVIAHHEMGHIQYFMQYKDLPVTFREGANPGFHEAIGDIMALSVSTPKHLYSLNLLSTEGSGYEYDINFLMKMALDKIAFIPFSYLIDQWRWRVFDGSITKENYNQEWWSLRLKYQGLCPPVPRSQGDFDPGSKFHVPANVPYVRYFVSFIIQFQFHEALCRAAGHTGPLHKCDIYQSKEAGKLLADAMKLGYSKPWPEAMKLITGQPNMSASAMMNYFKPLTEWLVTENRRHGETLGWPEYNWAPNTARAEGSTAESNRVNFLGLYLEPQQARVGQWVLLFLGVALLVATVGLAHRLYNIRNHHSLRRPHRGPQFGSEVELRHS
Experimental: as §1

[6] = test system: spontaneously hypertensive male rat (SHR); experiment: Anti-hypertensive effect in the spontaneously hypertensive rat (SHR); assay type: in vivo
Experimental: The anti-hypertensive effect of the compounds of the invention is determined in vivo in the rat affected by a hypertension induced by the administration of DOCA salt (deoxycorticosterone acetate) and in the spontaneously hypertensive male rat (SHR), in accordance with the protocol described by Trapani et al. (J. Cardiovasc. Pharmacol., 14, (1989), 419-424). In that test the compounds of the invention are shown to be powerful anti-hypertensives and to be non-toxic.

neutral endopeptidase (NEP), sequence (P08473 whole entry, species assumed): as the sequence (P08473 whole entry) above

O=C(O)CNC(=O)C(CS)Cc1ccccc1 (stereo not drawn) [thiorphan, N-(2-mercaptomethyl-3-phenyl-1-oxopropyl)glycine]
effect in clinical trials [1]: causes natriuresis and diuresis without any significant hypotensive effect and without decreasing cardiac overload | activity on NEP versus ACE in words [2]: exhibits an activity on neutral endopeptidase (NEP) only | inhibitory property, concentration [3]: nanomolar concentration

O=C(NCC(=O)N1[C@@H](c2cccc(O)c2)CC[C@H]1C(=O)O)[C@@H](S)Cc1ccc(O)cc1 [Example 47, N-[N-(5R)-[(2S)-2-mercapto-3-(para-hydroxyphenyl)propanoyl]glycyl]5-(meta-hydroxyphenyl)-L-proline]
% inhibition renal NEP ([4]; 1 h after administration): 75 ± 3% | % inhibition renal NEP ([4]; 2 h after administration): 70 ± 5% | % inhibition renal NEP ([4]; 4 h after administration): 74 ± 4% | % inhibition renal NEP ([4]; 8 h after administration): 60 ± 10% | % inhibition renal NEP ([4]; 16 h after administration): 48 ± 4% | % inhibition pulmonary ACE ([5]; 1 h after administration): 90 ± 1% | % inhibition pulmonary ACE ([5]; 2 h after administration): 86 ± 3% | % inhibition pulmonary ACE ([5]; 4 h after administration): 87 ± 3% | % inhibition pulmonary ACE ([5]; 8 h after administration): 73 ± 3% | % inhibition pulmonary ACE ([5]; 16 h after administration): 20 ± 8% | Systolic blood pressure (mm Hg) Treated animals ([6]; p.o. 25 mg/kg/day Day 1 to Day 6, n = 10, Day 0): 210 ± 5 mm Hg | Systolic blood pressure (mm Hg) Treated animals ([6]; p.o. 25 mg/kg/day Day 1 to Day 6, n = 10, Day 1): 212 ± 3 mm Hg | Systolic blood pressure (mm Hg) Treated animals ([6]; p.o. 25 mg/kg/day Day 1 to Day 6, n = 10, Day 2): 211 ± 1 mm Hg | Systolic blood pressure (mm Hg) Treated animals ([6]; p.o. 25 mg/kg/day Day 1 to Day 6, n = 10, Day 3): 210 ± 2 mm Hg | Systolic blood pressure (mm Hg) Treated animals ([6]; p.o. 25 mg/kg/day Day 1 to Day 6, n = 10, Day 4): 205 ± 2 mm Hg | Systolic blood pressure (mm Hg) Treated animals ([6]; p.o. 25 mg/kg/day Day 1 to Day 6, n = 10, Day 5): 205 ± 1 mm Hg | Systolic blood pressure (mm Hg) Treated animals ([6]; p.o. 25 mg/kg/day Day 1 to Day 6, n = 10, Day 6): 213 ± 2 mm Hg | Systolic blood pressure (mm Hg) Treated animals ([6]; p.o. 25 mg/kg/day Day 1 to Day 6, n = 10, Day 7): 209 ± 4 mm Hg | Systolic blood pressure (mm Hg) Treated animals ([6]; p.o. 25 mg/kg/day Day 1 to Day 6, n = 10, Day 8): 212 ± 2 mm Hg | Systolic blood pressure (mm Hg) Treated animals ([6]; p.o. 25 mg/kg/day Day 1 to Day 6, n = 10, Day 9): 208 ± 2 mm Hg | Systolic blood pressure (mm Hg) Treated animals ([6]; p.o. 25 mg/kg/day Day 1 to Day 6, n = 10, Day 10): 214 ± 1 mm Hg
